Common to all, as to assay: growth of human tumour cells (NCI), 48 h
Assay [1] concerns ACHN renal.
The test system of assay [2] is HCC-2998 colon.
For assay [3], the system named is HCT-15 colon.
Assay [4] concerns HL-60(TB) leukemia.
Assay [5] relates to NCI-H23 lung.
Assay [6] concerns OVCAR-8 ovarian.
The subject of assay [7] is SF-268 CNS.
The subject of assay [8] is SF-539 CNS.
Assay [9] has as its system SK-MEL-2 melanoma.
Assay [10] concerns SW-620 colon.

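Cultured in 96-well plates, cells were exposed to test compound for 48 hours across five concentrations. The concentration for 50% growth inhibition is given as GI50. TGI denotes the concentration required for complete inhibition of growth.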 Bounds are passed on as bounds.

As for `COC(=O)C1=CNC=C(C(=O)OC)C1C1=CC(=O)C(C)=CC1=O`, the GI50 in assay [1] was 2.52 µM; in [2], 14.9 µM; in [3], 17 µM; in assay [4] it was 1.71 µM; in [5] it was 16.5 µM; in [6] it was 14.3 µM. For the same compound, the GI50 was 9.82 µM in assay [7], 14.9 µM in assay [8], 16.6 µM in [9] and 8.43 µM in assay [10]. The TGI in [1] was determined as 8.18 µM; in assay [2] it was 28.1 µM; in assay [3], 32.6 µM; in [4], 5.88 µM; in [5] it was 31 µM; in assay [6], 29.1 µM. Moreover, the TGI was 24.6 µM in [7], 29.6 µM in assay [8], 30.9 µM in [9] and 22.2 µM in assay [10].
Turning to `COC(=O)[C@@H](C)CNS(=O)(=O)N(c1cc(C(F)(F)F)cc(C(F)(F)F)c1)C1CCN(Cc2ccc(F)cc2)CC1`, the GI50 in assay [1] is 14 µM; in [2], 3.01 µM; in [3], 4.42 µM; in assay [4], 4.69 µM; in [5] it was 12.2 µM; in assay [6] it was 14.6 µM. In addition, the GI50 in [7] was 11.5 µM; in [8], 13.2 µM; in assay [9], 21 µM; in [10], 11.1 µM. For the same compound, the TGI in assay [1] was 30 µM; in [2], 11.7 µM; in assay [3], 17.9 µM; in assay [4] it was 18.2 µM; in [5] it was 25.9 µM; in assay [6] it was 33.4 µM. The TGI in [7] worked out at 26.3 µM; in [8] it was 26.4 µM; in assay [9], 41 µM; in [10], 24.9 µM.
For `COc1ccccc1CNCCCN1C(=O)c2ccc3c4c(ccc(c24)C1=O)C(=O)N(CCCOCCCCOCCCN)C3=O`, the GI50 in assay [1] was 1.21 µM; in assay [2] it was 0.625 µM; in [3] it was 0.888 µM; in assay [4] it was 0.668 µM; in assay [5], 0.604 µM; in [6], 0.473 µM. The GI50 in [7] was 1.42 µM; in assay [8], 1.68 µM; in assay [9], 1.83 µM; in assay [10] it was 0.357 µM. In addition, the TGI was found to be 2.57 µM in assay [1]; 2.02 µM in assay [2]; 3.3 µM in assay [3]; 2.06 µM in assay [4]; 2.58 µM in assay [5]; 2.08 µM in assay [6]. Also, the TGI in assay [7] was 3.63 µM; in assay [8] it was 3.3 µM; in assay [9], 4.04 µM; in assay [10], 1.54 µM.
Take `COC1=CC(=O)c2nc(-c3cccc(C)n3)[nH]c2C1=O`: the GI50 in assay [1] is 25.1 µM; in assay [2] it was 35.6 µM; in assay [3], 52.5 µM; in assay [4], 76.4 µM; in assay [5], 28.3 µM; in assay [6], 24.7 µM. Further, the GI50 in assay [7] is 24.7 µM; in assay [8] it was 18.8 µM; in assay [9] it was 52.4 µM; in [10], 21.4 µM. In addition, the TGI was 70.3 µM in [1]; greater than 100 µM in assay [2]; greater than 100 µM in [3]; greater than 100 µM in assay [4]; greater than 100 µM in [5]; 78.2 µM in [6]. The TGI in [7] was 49.6 µM; in [8] it was 36.7 µM; in assay [9], greater than 100 µM; in assay [10], 54.8 µM.
With `CCOc1ccccc1NC(=O)CC(C(=O)OC)C(=O)C(=O)OC` (stereo not given), the TGI in [1], in [2], in [3], in assay [4], in assay [5] and in assay [6] was greater than 100 µM throughout. Besides, the TGI in [7], in assay [8], in assay [9] and in [10] was greater than 100 µM in each case.
Take `NS(=O)(=O)c1ccc(N=Nc2c(O)[nH]c3ccc(-c4cnco4)cc23)cc1`: the GI50 is 17.7 µM in [1]; greater than 25 µM in assay [2]; greater than 25 µM in [3]; greater than 25 µM in assay [4]; greater than 25 µM in [5]; greater than 19.2 µM in [6]. Also, the GI50 in assay [7] is greater than 25 µM; in assay [8], greater than 25 µM; in assay [9], greater than 25 µM; in assay [10] it was 9.91 µM. The TGI in assay [1], in [2], in assay [3], in assay [4], in assay [5] and in assay [6] was greater than 25 µM each time. In addition, the TGI in [7], in assay [8], in assay [9] and in [10] was greater than 25 µM each time.
Consider `COC(=O)C1=C(C)N(NC(=O)OC(C)(C)C)C(=O)C1=P(c1ccccc1)(c1ccccc1)c1ccccc1`, for which the TGI in assay [1], in assay [2], in assay [3], in [4], in assay [5] and in assay [6] was greater than 100 µM in each case. Further, the TGI in assay [7], in [8], in assay [9] and in [10] was greater than 100 µM throughout.
In the case of `COc1cc2ncnc(Nc3ccc(C)c(O)c3)c2cc1OC`, the GI50 in assay [1] was 0.799 µM; in assay [2] it was greater than 25 µM; in assay [3] it was 14.1 µM; in assay [4], greater than 25 µM; in assay [5], greater than 25 µM; in assay [6], 11.2 µM. The GI50 was greater than 19.2 µM in assay [7], 5.98 µM in assay [8], greater than 13.4 µM in assay [9] and greater than 25 µM in [10]. The TGI in [1], in assay [2], in assay [3], in assay [4], in [5] and in assay [6] was greater than 25 µM each time. The TGI in [7] was greater than 25 µM; in assay [8] it was greater than 23 µM; in assay [9] it was greater than 20 µM; in [10] it was greater than 25 µM.
With `COc1ccc(C(=O)C(C(=O)CCC(=O)Nc2cccc(Cl)c2)c2ccc(OC)cc2)cc1` (stereo not given), the TGI in assay [1], in [2], in assay [3], in assay [4], in [5] and in assay [6] was greater than 100 µM each time. In addition, the TGI in [7], in assay [8], in [9] and in [10] was greater than 100 µM each time.
Regarding `CC(C)C(Nc1c2ccccc2nc2ccccc12)C(=O)O` (stereo not given), the TGI in [1], in assay [2], in assay [3], in assay [4], in [5] and in assay [6] was greater than 100 µM in each case. Further, the TGI in [7], in [8], in assay [9] and in assay [10] was greater than 100 µM in each case.
Consider `O=C(NC1=CC(=O)c2ccccc2C1=O)c1ccccc1`, for which the GI50 was 1.01 µM in assay [1]; 1.27 µM in [2]; 0.549 µM in assay [3]; 0.639 µM in [4]; 1.12 µM in assay [5]; 1.67 µM in [6]. Also, the GI50 was 1.21 µM in [7], 0.284 µM in [8], 0.534 µM in assay [9] and 1.15 µM in [10]. Besides, the TGI in assay [1] is 2.27 µM; in assay [2] it was 14.3 µM; in [3], 5.6 µM; in assay [4] it was 2.53 µM; in assay [5] it was 9.5 µM; in [6], 5.63 µM. The TGI is 13.8 µM in assay [7], 0.913 µM in assay [8], 15.7 µM in assay [9] and 2.82 µM in [10].
Consider `COc1ccc(Cn2cc3c(c2-c2ccccc2)CC(C)(C)c2cnoc2-3)cc1`, for which the GI50 in assay [1] was 5.06 µM; in assay [2], 2.91 µM; in [3] it was 1.02 µM; in [4] it was 0.82 µM; in assay [5] it was 2.29 µM; in assay [6], 4.66 µM. Further, the GI50 was 3.92 µM in assay [7], 2.18 µM in assay [8], 2.9 µM in [9] and 0.806 µM in assay [10]. Moreover, the TGI in assay [1] is greater than 100 µM; in assay [2], greater than 100 µM; in [3], greater than 100 µM; in [4], 4.29 µM; in [5], greater than 100 µM; in assay [6], greater than 100 µM. The TGI in [7] is greater than 100 µM; in [8], 6.02 µM; in assay [9], 53.6 µM; in [10] it was greater than 100 µM.
For the compound `Cc1nc(N)sc1C(=O)/C=C\c1ccc2c(c1)OCO2`, the TGI in [1], in [2], in assay [3], in [4], in assay [5] and in assay [6] was greater than 100 µM each time. Further, the TGI in assay [7], in [8], in assay [9] and in [10] was greater than 100 µM in each case.
In the case of `COc1nc2ccccc2cc1-c1nc2c(cnn2-c2ccc(Br)cc2)c(=O)[nH]1`, the GI50 in assay [1] was 0.0345 µM; in assay [2], 0.587 µM; in assay [3], 0.0261 µM; in assay [4] it was 0.0158 µM; in assay [5] it was 0.0825 µM; in assay [6], 0.0577 µM. Also, the GI50 in assay [7] is 0.131 µM; in assay [8] it was 0.0194 µM; in assay [9], 0.0946 µM; in assay [10] it was 0.0228 µM. In addition, the TGI in assay [1] was greater than 50 µM; in [2], greater than 50 µM; in assay [3], greater than 50 µM; in assay [4], 0.0815 µM; in assay [5], 10.9 µM; in [6] it was greater than 50 µM. The TGI in assay [7] is greater than 50 µM; in [8], 1.63 µM; in assay [9] it was 9.22 µM; in assay [10] it was greater than 50 µM.
